Key:
Assay in all cases: KAM-matrix competition in K562 lysate;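 on 0.001 uM KAM: median log10 fold change of treatment over DMSO control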;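 on 0.01 uM KAM: median log10 fold change of treatment over DMSO control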;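 on 0.1 uM KAM: median log10 fold change of treatment over DMSO control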;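 on 1 uM KAM: median log10 fold change of treatment over DMSO control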;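 on 10 uM KAM: median log10 fold change of treatment over DMSO control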
Type in all cases: binding
TTK = biological target: T1, TTK (Homo sapiens, UniProt P33981);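 on 0.001 uM KAM: median log10 fold change of treatment over DMSO control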;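 on 0.01 uM KAM: median log10 fold change of treatment over DMSO control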;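 on 0.1 uM KAM: median log10 fold change of treatment over DMSO control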;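 on 1 uM KAM: median log10 fold change of treatment over DMSO control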;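 on 10 uM KAM: median log10 fold change of treatment over DMSO control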
T1 construct: endogenous in cells; host or cells: K562
T1 sequence (P33981 1-857): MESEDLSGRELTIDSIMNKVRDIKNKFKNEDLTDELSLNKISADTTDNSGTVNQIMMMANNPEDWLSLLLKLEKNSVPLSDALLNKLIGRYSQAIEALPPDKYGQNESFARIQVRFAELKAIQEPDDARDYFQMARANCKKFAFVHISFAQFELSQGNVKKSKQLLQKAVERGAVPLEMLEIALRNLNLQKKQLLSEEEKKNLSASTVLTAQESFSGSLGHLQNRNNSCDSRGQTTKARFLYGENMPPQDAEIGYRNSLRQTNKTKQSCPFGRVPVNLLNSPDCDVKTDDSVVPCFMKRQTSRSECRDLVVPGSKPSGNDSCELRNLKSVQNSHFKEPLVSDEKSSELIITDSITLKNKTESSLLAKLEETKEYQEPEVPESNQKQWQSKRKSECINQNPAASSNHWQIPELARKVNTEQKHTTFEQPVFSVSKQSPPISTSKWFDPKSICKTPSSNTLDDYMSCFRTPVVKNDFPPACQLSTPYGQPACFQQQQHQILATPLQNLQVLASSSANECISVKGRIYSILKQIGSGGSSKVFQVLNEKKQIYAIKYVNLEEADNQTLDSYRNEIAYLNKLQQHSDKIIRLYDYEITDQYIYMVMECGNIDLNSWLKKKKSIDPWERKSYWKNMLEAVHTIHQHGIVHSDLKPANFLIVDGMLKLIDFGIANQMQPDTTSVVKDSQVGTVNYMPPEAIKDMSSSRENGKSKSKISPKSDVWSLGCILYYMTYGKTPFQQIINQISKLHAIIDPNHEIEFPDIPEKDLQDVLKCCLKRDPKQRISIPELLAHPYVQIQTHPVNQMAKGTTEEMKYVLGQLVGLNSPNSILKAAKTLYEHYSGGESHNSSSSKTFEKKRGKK
Protocol: (§1) Supplement 12953_2017_125_MOESM1_ESM.zip/MS_Supp Info.xlsx, sheet "KAM" | column: 10 uM KAM; 1 uM KAM; 0.1 uM KAM; 0.01 uM KAM; 0.001 uM KAM; RB50

IRAK1 = biological target: T2, IRAK1 (Homo sapiens, UniProt P51617);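 on 0.001 uM KAM: median log10 fold change of treatment over DMSO control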;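 on 0.01 uM KAM: median log10 fold change of treatment over DMSO control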;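 on 0.1 uM KAM: median log10 fold change of treatment over DMSO control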;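 on 1 uM KAM: median log10 fold change of treatment over DMSO control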;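 on 10 uM KAM: median log10 fold change of treatment over DMSO control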
T2 construct: endogenous in cells; host or cells: K562
Protocol: as §1

MAP4K3 = biological target: T3, MAP4K3 (Homo sapiens, UniProt Q8IVH8)
T3 construct: endogenous in cells; host or cells: K562
T3 sequence (Q8IVH8 1-894): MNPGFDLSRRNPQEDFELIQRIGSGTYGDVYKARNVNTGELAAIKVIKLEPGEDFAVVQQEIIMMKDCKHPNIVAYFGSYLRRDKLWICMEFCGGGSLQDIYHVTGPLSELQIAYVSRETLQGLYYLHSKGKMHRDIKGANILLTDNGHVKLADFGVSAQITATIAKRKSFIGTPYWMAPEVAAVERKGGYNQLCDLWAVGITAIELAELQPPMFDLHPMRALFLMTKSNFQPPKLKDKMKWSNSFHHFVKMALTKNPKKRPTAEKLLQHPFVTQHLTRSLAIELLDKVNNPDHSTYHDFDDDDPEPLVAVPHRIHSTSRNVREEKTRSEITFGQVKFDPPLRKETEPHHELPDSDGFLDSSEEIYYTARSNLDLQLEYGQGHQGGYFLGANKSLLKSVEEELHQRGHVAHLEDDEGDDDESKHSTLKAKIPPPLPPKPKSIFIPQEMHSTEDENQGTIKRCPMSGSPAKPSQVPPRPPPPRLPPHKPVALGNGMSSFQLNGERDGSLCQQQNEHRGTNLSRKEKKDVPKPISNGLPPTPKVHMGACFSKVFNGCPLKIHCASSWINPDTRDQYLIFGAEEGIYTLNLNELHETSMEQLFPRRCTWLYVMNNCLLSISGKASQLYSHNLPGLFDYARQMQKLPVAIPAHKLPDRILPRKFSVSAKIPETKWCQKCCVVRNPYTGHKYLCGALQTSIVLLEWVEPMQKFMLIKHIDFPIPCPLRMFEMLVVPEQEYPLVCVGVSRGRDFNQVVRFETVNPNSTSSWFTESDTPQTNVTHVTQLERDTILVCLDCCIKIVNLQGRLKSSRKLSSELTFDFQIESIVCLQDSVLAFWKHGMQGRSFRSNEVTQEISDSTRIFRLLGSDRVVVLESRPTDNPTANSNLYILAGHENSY
Protocol: as §1

STK17A = biological target: T4, STK17A (Homo sapiens, UniProt Q9UEE5)
T4 construct: endogenous in cells; host or cells: K562 cell lysate
T4 sequence (Q9UEE5 1-414): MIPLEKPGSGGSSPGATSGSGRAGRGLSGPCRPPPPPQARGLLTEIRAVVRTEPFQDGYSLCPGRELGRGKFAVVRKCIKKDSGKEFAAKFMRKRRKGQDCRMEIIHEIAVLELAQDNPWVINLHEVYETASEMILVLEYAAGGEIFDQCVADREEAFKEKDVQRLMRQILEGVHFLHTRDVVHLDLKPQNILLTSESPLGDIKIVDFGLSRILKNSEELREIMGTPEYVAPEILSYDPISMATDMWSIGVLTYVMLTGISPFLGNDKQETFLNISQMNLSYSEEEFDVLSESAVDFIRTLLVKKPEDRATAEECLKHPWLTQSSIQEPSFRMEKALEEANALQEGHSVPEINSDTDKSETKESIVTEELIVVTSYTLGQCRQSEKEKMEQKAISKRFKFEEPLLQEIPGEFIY
Protocol: as §1

BUB1 = biological target: T5, BUB1 (Homo sapiens, UniProt O43683);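 on 0.001 uM KAM: median log10 fold change of treatment over DMSO control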;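 on 0.01 uM KAM: median log10 fold change of treatment over DMSO control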;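 on 0.1 uM KAM: median log10 fold change of treatment over DMSO control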;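 on 1 uM KAM: median log10 fold change of treatment over DMSO control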;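 on 10 uM KAM: median log10 fold change of treatment over DMSO control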
T5 construct: endogenous in cells; host or cells: K562
Protocol: as §1

CDK2 = biological target: T6, CDK2 (Homo sapiens, UniProt P24941)
T6 construct: endogenous in cells; host or cells: K562
Protocol: as §1

[1] = KAM 0.001-10 uM, read-out: RB50 (the source's name)
[2] = read-out: RB50 (the source's name)

T2 sequence (P51617 whole entry): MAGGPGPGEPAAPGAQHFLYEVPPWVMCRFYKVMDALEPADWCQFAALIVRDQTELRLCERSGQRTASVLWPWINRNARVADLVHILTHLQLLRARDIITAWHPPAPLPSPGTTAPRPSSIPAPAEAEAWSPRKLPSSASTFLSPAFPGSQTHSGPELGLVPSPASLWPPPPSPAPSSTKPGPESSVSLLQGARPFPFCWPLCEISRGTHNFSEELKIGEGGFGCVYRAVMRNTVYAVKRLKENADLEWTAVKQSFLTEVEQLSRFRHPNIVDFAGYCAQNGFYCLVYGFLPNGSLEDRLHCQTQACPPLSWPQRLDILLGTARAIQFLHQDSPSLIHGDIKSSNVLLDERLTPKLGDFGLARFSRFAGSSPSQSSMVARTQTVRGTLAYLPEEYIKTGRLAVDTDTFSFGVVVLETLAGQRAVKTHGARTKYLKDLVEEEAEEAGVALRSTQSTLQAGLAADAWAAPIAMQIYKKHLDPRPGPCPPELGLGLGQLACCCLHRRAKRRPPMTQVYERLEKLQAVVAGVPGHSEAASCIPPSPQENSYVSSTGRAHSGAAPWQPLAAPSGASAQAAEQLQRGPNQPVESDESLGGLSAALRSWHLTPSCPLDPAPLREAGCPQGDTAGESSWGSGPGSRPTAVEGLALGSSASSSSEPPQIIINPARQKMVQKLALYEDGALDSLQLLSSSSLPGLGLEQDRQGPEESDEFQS
T5 sequence (O43683 whole entry): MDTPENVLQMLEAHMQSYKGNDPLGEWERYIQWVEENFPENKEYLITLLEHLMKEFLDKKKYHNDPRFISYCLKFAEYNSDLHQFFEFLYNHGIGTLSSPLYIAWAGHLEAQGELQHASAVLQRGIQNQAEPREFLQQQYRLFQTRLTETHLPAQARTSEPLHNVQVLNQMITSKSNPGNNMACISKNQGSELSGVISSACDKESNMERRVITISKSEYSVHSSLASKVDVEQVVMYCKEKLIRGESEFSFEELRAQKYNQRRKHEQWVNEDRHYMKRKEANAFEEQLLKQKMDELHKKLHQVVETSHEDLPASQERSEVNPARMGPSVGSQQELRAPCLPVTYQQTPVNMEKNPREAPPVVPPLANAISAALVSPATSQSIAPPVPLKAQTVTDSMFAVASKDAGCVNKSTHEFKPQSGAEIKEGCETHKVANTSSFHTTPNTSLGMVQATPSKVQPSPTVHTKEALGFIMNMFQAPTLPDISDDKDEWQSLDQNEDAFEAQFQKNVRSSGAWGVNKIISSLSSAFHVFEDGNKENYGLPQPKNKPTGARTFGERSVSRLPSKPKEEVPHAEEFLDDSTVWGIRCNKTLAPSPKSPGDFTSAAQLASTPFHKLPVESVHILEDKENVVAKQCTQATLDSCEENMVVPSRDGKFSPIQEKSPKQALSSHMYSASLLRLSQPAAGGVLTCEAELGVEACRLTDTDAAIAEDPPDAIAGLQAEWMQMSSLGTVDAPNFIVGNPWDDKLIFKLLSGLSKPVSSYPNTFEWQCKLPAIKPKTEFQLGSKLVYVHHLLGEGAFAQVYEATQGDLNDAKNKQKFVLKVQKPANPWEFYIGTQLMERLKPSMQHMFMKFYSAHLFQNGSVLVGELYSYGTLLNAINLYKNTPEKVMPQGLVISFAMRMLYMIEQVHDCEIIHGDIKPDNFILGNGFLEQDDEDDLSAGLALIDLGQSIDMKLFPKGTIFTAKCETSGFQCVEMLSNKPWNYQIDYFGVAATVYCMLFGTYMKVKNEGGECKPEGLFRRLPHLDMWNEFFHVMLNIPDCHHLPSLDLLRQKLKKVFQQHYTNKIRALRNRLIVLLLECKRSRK

`N#CCc1ccc(Nc2nc(NCCCN)cc(Nc3cc(C4CC4)[nH]n3)n2)cc1` [KAM] was tested, and the IC50 (TTK; [1]) was > 10000 nM, the “0.001 uM KAM” value (TTK; relative to 0 uM KAM = 0) was -0.02414 and the “0.01 uM KAM” value (TTK; relative to 0 uM KAM = 0) was 0.009793. The “0.1 uM KAM” value (TTK; relative to 0 uM KAM = 0) was -0.08807, the “1 uM KAM” value (TTK; relative to 0 uM KAM = 0) was -0.1446 and the “10 uM KAM” value (TTK; relative to 0 uM KAM = 0) was -0.2103. The IC50 (IRAK1; [1]) was 6030 nM, the “0.001 uM KAM” value (IRAK1; relative to 0 uM KAM = 0) was -0.01461 and the “0.01 uM KAM” value (IRAK1; relative to 0 uM KAM = 0) was -0.006177. The “0.1 uM KAM” value (IRAK1; relative to 0 uM KAM = 0) was -0.1059, the “1 uM KAM” value (IRAK1; relative to 0 uM KAM = 0) was -0.1722 and the “10 uM KAM” value (IRAK1; relative to 0 uM KAM = 0) was -0.3131. For the same molecule, the “median Log10 fold change” value (MAP4K3; 0.001 uM KAM) was -0.00532, the “median Log10 fold change” value (MAP4K3; 0.01 uM KAM) was -0.01342 and the “median Log10 fold change” value (MAP4K3; 0.1 uM KAM) was -0.1612. For the same molecule, the “median Log10 fold change” value (MAP4K3; 1 uM KAM) was -0.436, the “median Log10 fold change” value (MAP4K3; 10 uM KAM) was -0.5629 and the IC50 (MAP4K3; [2]) was 472 nM. The “median Log10 fold change” value (STK17A; 0.001 uM KAM) was -0.02395, the “median Log10 fold change” value (STK17A; 0.01 uM KAM) was -0.004192 and the “median Log10 fold change” value (STK17A; 0.1 uM KAM) was -0.2117. The “median Log10 fold change” value (STK17A; 1 uM KAM) was -0.3947, the “median Log10 fold change” value (STK17A; 10 uM KAM) was -0.5099 and the IC50 (STK17A; [2]) was 457 nM. For the same molecule, the IC50 (BUB1; [1]) was > 10000 nM, the “0.001 uM KAM” value (BUB1; relative to 0 uM KAM = 0) was -0.05097 and the “0.01 uM KAM” value (BUB1; relative to 0 uM KAM = 0) was -0.002823. The “0.1 uM KAM” value (BUB1; relative to 0 uM KAM = 0) was -0.07998, the “1 uM KAM” value (BUB1; relative to 0 uM KAM = 0) was -0.1399 and the “10 uM KAM” value (BUB1; relative to 0 uM KAM = 0) was -0.1894. The “median Log10 fold change” value (CDK2; 0.001 uM KAM) was -0.01597, the “median Log10 fold change” value (CDK2; 0.01 uM KAM) was -0.009383 and the “median Log10 fold change” value (CDK2; 0.1 uM KAM) was -0.2687. The “median Log10 fold change” value (CDK2; 1 uM KAM) was -0.5288, the “median Log10 fold change” value (CDK2; 10 uM KAM) was -0.6805 and the IC50 (CDK2; [2]) was 177 nM.

Source: PMC5513037, “Examining the influence of specificity ligands and ATP-competitive ligands on the overall effectiveness of bivalent kinase inhibitors” (Proteome Science, 2017)
